{"source": "patent US8748448B2", "about": "“Combination analgesic employing opioid agonist and neutral antagonist” (AIKO Biotechnology, priority 2007, dated 2014)", "key": {"[1]": {"test_system": "hydrocodone induced GI inhibition", "experiment": "GI transit assay (charcoal meal): reversal of hydrocodone induced GI inhibition", "settings": "for induction of diarrhea: on administration of the antagonist"}, "[2]": {"test_system": "hydrocodone effects: GI transit (peripheral) vs. antinociception (central)", "experiment": "Peripheral vs. central potency, (antinociception ID50)/(GI transit ID50)", "type": "in vivo, mice", "settings": "for fold more potent peripherally than centrally: over all administration routes"}, "[3]": {"test_system": "hydrocodone-induced antinociception", "experiment": "55° C. warm-water tail-flick assay: inhibition of hydrocodone-induced antinociception", "type": "in vivo, mice"}, "[4]": {"settings": "humans; literature; cited from earlier work"}, "[5]": {"experiment": "Concentrations in plasma and brain tissue after i.p. injection (LC/MS/MS)", "settings": "for change of levels at 60 min from those measured at 10 min: after i.p. injection; for concentration at 10 min / concentration at 60 min: mouse, 1 mg/kg"}, "[6]": {"settings": "po; cited from earlier work"}, "[7]": {"experiment": "Oral bioavailability of the neutral antagonists"}, "[8]": {"experiment": "Neutral antagonist comparison (Table 3)", "settings": "for Equivalent dose (as compared to 1.5 mg to 5 mg 6β-naltrexol): 70 kg subject; for potency, times less potent than 6β-naltrexol: stated as 'may be'/'probably'"}, "[9]": {"test_system": "opioid withdrawal in methadone-dependent subjects", "experiment": "Double-blind ascending dose study in methadone maintenance subjects: withdrawal scales, VAS, vital signs, pupillometry, tolerability"}, "[10]": {"settings": "antagonist i.v., hydrocodone A90 3.2 mg/kg i.v."}, "[11]": {"settings": "antagonist p.o. co-administered with hydrocodone A90 32 mg/kg p.o."}, "[12]": {"settings": "antagonist p.o., hydrocodone A90 3.2 mg/kg i.v."}, "[13]": {"settings": "1 mg/kg i.p., 60 min after injection"}, "[14]": {"settings": "10 mg/kg i.p., 10 min after injection"}, "[15]": {"settings": "10 mg/kg i.p., 60 min after injection"}}, "note": "“And” between values parts separate entries of the source, which are not always exact repeats. Equal values may be shown once. Read-outs that look alike come from different tables or passages of the source."}
{"compound": "O=C1CC[C@@]2(O)[C@H]3Cc4ccc(O)c5c4[C@@]2(CCN3CC2CC2)[C@H]1O5", "note": "[Naltrexone, naltrexone, reference compound]", "values": [{"measurement": "GI Transit ID50", "setting": "[1]; [10]", "value": 0.0456, "unit": "mg/kg"}, {"measurement": "GI Transit ID50", "setting": "[1]; [11]", "value": 1.40, "unit": "mg/kg"}, {"measurement": "GI Transit ID50", "setting": "[1]; [12]", "value": 0.194, "unit": "mg/kg"}, {"measurement": "induction of diarrhea", "setting": "[1]", "value": "strong induction of diarrhea was present"}, {"measurement": "fold more potent peripherally than centrally", "setting": "[2]", "value": "nearly equipotent peripherally and centrally"}, {"measurement": "Antinociception ID50", "setting": "[3]; antagonist i.v. pretreatment, hydrocodone A90 3.2 mg/kg i.v.", "value": 0.0411, "unit": "mg/kg"}, {"measurement": "Antinociception ID50", "setting": "[3]; [11]", "value": 0.914, "unit": "mg/kg"}, {"measurement": "Antinociception ID50", "setting": "[3]; antagonist p.o. pretreatment, hydrocodone A90 3.2 mg/kg i.v.", "value": 0.534, "unit": "mg/kg"}, {"measurement": "time of peak effect of antinociception inhibition", "setting": "[3]; i.v. administration, hydrocodone 3.2 mg/kg i.v.", "value": 30, "unit": "min"}, {"measurement": "time of peak effect of antinociception inhibition", "setting": "[3]; p.o. administration, hydrocodone 3.2 mg/kg i.v.", "value": 45, "unit": "min"}, {"measurement": "fraction converted to 6β-naltrexol", "setting": "[4]", "value": "approximately 43%"}, {"measurement": "change of levels at 60 min from those measured at 10 min", "setting": "[5]", "value": "~90", "unit": "%"}, {"measurement": "detectability after administration of 6β-naltrexol", "setting": "[5]; i.p. 6β-naltrexol", "value": "no naltrexone was detectable"}, {"measurement": "concentration at 10 min", "setting": "[5]; brain, intraperitoneal", "value": "69 ± 20", "unit": "ng/g"}, {"measurement": "concentration at 60 min", "setting": "[5]; brain, intraperitoneal", "value": "9 ± 1", "unit": "ng/g"}, {"measurement": "concentration at 10 min", "setting": "[5]; in vivo", "value": "0.054 ± 0.016", "unit": "µg/mL"}, {"measurement": "concentration at 60 min", "setting": "[5]; in vivo", "value": "0.004 ± 0.001", "unit": "µg/mL"}]}
{"compound": "CN1CC[C@]23c4c5ccc(O)c4O[C@H]2C(=O)CC[C@@]3(O)[C@H]1C5", "note": "[Oxymorphone]", "values": [{"measurement": "Bioavailability for CNS (central) effects", "setting": "[6]", "value": 10, "unit": "%"}]}
{"compound": "CCOC(=O)C1(c2ccccc2)CCN(C)CC1", "note": "[Pethidine]", "values": [{"measurement": "Bioavailability for CNS (central) effects", "setting": "[6]", "value": "50-60%"}]}
{"compound": "COc1cccc(C2(O)CCCCC2CN(C)C)c1", "note": "(stereo not shown) [Tramadol]", "values": [{"measurement": "Bioavailability for CNS (central) effects", "setting": "[6]", "value": "68-72%"}]}
{"compound": "6β-naltrexamide", "values": [{"measurement": "potency in blocking peripheral effects, lower than 6β-naltrexol on a mg/kg basis", "setting": "[1]; animal experiments", "value": "2-3 fold"}, {"measurement": "GI Transit ID50", "setting": "[1]; [10]", "value": 0.173, "unit": "mg/kg"}, {"measurement": "GI Transit ID50", "setting": "[1]; antagonist p.o./hydrocodone p.o., full dose-response curves not available", "value": "1 to 2", "unit": "mg/kg"}, {"measurement": "GI Transit ID50", "setting": "[1]; [12]", "value": 1.92, "unit": "mg/kg"}, {"measurement": "GI transit ID50, expected", "setting": "[1]; i.v. administration", "value": "0.1 to 0.2", "unit": "mg/kg"}, {"measurement": "induction of diarrhea", "setting": "[1]", "value": "absent"}, {"measurement": "GI transit ID50, expected", "setting": "[1]; p.o. administration", "value": "1 to 2", "unit": "mg/kg"}, {"measurement": "oral bioavailability (into the circulation), estimated", "setting": "[7]; humans, estimated", "value": "approximately 25%"}, {"measurement": "oral bioavailability", "setting": "[7]; species not stated", "value": "~20", "unit": "%"}, {"measurement": "peripheral over central antagonist selectivity compared to 6β-naltrexol", "setting": "[2]; animal experiments", "value": "somewhat higher"}, {"measurement": "Fold-Shift (antinociception ID50)/(GI transit ID50)", "setting": "[2]; antagonist p.o./hydrocodone i.v.", "value": "14 and 14.3"}, {"measurement": "selectivity in blocking peripheral over central opioid effects", "setting": "[2]; mice, oral administration, earlier experiments", "value": "approximately twenty-fold"}, {"measurement": "fold more potent peripherally than centrally", "setting": "[2]", "value": "14-25 fold"}, {"measurement": "potency in blocking hydrocodone-induced antinociception, lower than that of 6β-naltrexol", "setting": "[3]; mouse, in vivo", "value": "approximately 10 fold"}, {"measurement": "time of peak effect of antinociception inhibition", "setting": "[3]; mouse, in vivo", "value": "120 min and 120 to 180 min"}, {"measurement": "Half-life of active metabolites", "setting": "[8]", "value": "Estimated >12 hours"}, {"measurement": "Bioavailability for CNS (central) effects", "setting": "[8]; given orally", "value": "~25", "unit": "%"}, {"measurement": "Equivalent dose (as compared to 1.5 mg to 5 mg 6β-naltrexol)", "setting": "[8]; given orally", "value": "3 to 8", "unit": "mg"}, {"measurement": "potency, times less potent than 6β-naltrexol", "setting": "[8]", "value": "2-3 fold"}, {"measurement": "Brain concentration", "setting": "[5]; 1 mg/kg i.p., 10 min after injection", "value": "6 ± 1", "unit": "ng/g"}, {"measurement": "Plasma concentration", "setting": "[5]; 1 mg/kg i.p., 10 min after injection, mean±SD, n=3", "value": "0.115 ± 0.002", "unit": "µg/mL"}, {"measurement": "Brain concentration", "setting": "[5]; [13]", "value": "4 ± 1", "unit": "ng/g"}, {"measurement": "Plasma concentration", "setting": "[5]; [13]", "value": "0.018 ± 0.001", "unit": "µg/mL"}, {"measurement": "Brain concentration", "setting": "[5]; [14]", "value": "27 ± 6", "unit": "ng/g"}, {"measurement": "Plasma concentration", "setting": "[5]; [14]", "value": "0.933 ± 0.221", "unit": "µg/mL"}, {"measurement": "Brain concentration", "setting": "[5]; [15]", "value": "24 ± 1", "unit": "ng/g"}, {"measurement": "Plasma concentration", "setting": "[5]; [15]", "value": "0.166 ± 0.077", "unit": "µg/mL"}, {"measurement": "change of levels at 60 min from those measured at 10 min", "setting": "[5]", "value": "had not changed"}, {"measurement": "blood half-life compared with 6β-naltrexol", "setting": "[5]; mice, preliminary experiments", "value": "longer blood half-life than 6β-naltrexol"}]}
{"compound": "COc1ccc2c3c1O[C@H]1[C@@H](O)C=C[C@H]4[C@@H](C2)N(C)CC[C@@]341", "note": "[Codeine]", "values": [{"measurement": "Bioavailability for CNS (central) effects", "setting": "[6]", "value": "≈90%"}]}
{"compound": "N[C@@H]1CC[C@@]2(O)[C@H]3Cc4ccc(O)c5c4[C@@]2(CCN3CC2CC2)[C@H]1O5", "note": "[6β-naltrexamine]", "values": [{"measurement": "Equivalent dose (as compared to 1.5 mg to 5 mg 6β-naltrexol)", "setting": "[8]; given orally", "value": "7.5 to 20", "unit": "mg"}, {"measurement": "potency, times less potent than 6β-naltrexol", "setting": "[8]", "value": "3-6 fold"}]}
{"compound": "COc1ccc2c3c1O[C@H]1C(=O)CC[C@H]4[C@@H](C2)N(C)CC[C@]314", "note": "[Hydrocodone]", "values": [{"measurement": "Bioavailability for CNS (central) effects", "setting": "[6]", "value": "≧80%"}]}
{"compound": "CN1CC[C@]23CCCC[C@H]2[C@H]1Cc1ccc(O)cc13", "note": "[Levorphanol]", "values": [{"measurement": "Bioavailability for CNS (central) effects", "setting": "[6]", "value": 70, "unit": "%"}]}
{"compound": "C=CCN1CC[C@]23c4c5ccc(O)c4O[C@H]2C(=O)CC[C@@]3(O)[C@H]1C5", "note": "[Naloxone, naloxone, reference compound]", "values": [{"measurement": "withdrawal symptoms", "setting": "[9]; 0.050 mg, methadone-dependent subjects", "value": "detectable withdrawal symptoms"}, {"measurement": "Diastolic BP, peak value", "setting": "[9]; dose 0.05 mg", "value": "76.5 ± 3.8", "unit": "mmHg"}, {"measurement": "Heart Rate, peak value", "setting": "[9]; dose 0.05 mg", "value": "63.5 ± 8.0", "unit": "bpm"}, {"measurement": "SOWS (total), peak value", "setting": "[9]; dose 0.05 mg", "value": "3.0 ± 2.8"}, {"measurement": "VAS Any Drug Effect, peak value", "setting": "[9]; dose 0.05 mg", "value": "15.4 ± 23.7"}, {"measurement": "VAS Bad Drug Effect, peak value", "setting": "[9]; dose 0.05 mg", "value": "13.5 ± 25.0"}, {"measurement": "VAS Good Drug Effect, peak value", "setting": "[9]; dose 0.05 mg", "value": "10.4 ± 18.9"}, {"measurement": "VAS Opioid Withdrawal, peak value", "setting": "[9]; dose 0.05 mg", "value": "5.6 ± 8.2"}, {"measurement": "VAS Sickness, peak value", "setting": "[9]; dose 0.05 mg", "value": "4.6 ± 6.5"}, {"measurement": "OOWS (total), peak value", "setting": "[9]; dose 0.05 mg, mean ± standard deviation", "value": "2.5 ± 0.6"}]}
